According to publication PMC4384654 (ChemMedChem, 2014):
“And” between values parts separate entries of the source, which are not always exact repeats. Identical values can stand only once. Like-named read-outs stand apart in the source and are kept apart here.

Assays:
[1] = biological target: T1, FAAH prepared from rat brain homogenates (Rattus norvegicus, UniProt P97612); experiment: In vitro rat FAAH radiometric assay; format: biochemical; settings: for IC50: read-out: r-FAAH IC50; for IC50 / % inhibition of FAAH activity at 100 μM: rat brain homogenate; for Increase in potency vs 34a: relative to 34a
T1 sequence (P97612 1-579): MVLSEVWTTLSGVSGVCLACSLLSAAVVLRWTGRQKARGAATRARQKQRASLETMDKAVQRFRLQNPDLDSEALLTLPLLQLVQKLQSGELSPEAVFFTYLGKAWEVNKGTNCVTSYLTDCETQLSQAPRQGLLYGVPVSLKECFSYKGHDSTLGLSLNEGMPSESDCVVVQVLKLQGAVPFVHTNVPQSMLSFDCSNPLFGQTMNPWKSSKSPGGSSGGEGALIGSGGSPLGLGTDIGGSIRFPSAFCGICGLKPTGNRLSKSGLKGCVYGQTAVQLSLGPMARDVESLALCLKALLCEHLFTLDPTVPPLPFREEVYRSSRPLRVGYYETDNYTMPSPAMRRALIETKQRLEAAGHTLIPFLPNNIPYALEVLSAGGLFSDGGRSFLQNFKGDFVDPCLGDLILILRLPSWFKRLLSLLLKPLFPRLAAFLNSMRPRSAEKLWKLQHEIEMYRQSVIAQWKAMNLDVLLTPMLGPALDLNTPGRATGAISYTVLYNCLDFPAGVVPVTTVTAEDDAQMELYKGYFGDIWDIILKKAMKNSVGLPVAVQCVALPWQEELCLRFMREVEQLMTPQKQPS

[2] = biological target: T2, human FAAH-1 (Homo sapiens, UniProt O00519); experiment: In vitro human FAAH fluorescent assay; format: biochemical; settings: h-FAAH-1 IC50 relative to r-FAAH IC50
T2 sequence (O00519 1-579): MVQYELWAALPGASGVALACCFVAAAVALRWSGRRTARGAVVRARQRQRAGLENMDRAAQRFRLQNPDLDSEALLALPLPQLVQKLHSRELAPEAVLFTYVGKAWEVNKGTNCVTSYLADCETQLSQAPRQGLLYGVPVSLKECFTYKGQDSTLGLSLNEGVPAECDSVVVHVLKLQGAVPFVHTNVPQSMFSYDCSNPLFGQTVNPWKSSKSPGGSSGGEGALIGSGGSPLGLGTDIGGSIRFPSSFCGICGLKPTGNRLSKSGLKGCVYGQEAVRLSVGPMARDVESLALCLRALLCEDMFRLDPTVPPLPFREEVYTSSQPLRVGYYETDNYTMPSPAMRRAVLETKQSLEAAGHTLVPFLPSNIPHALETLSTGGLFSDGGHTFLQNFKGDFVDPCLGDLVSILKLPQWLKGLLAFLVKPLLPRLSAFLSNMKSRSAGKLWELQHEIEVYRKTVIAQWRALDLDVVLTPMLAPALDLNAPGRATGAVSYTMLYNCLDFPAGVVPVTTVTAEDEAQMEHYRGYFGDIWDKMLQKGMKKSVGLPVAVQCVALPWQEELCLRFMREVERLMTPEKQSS

IC50 ([1]; mean ± SEM (n=3))	also measured	SMILES
	inhibition at 100 µM ([1]; read-out: % inhibition of FAAH activity at 100 μM): 65%	O=C(NC1CCCCC1)OCc1cccc(-c2ccccc2)c1 [Compound 4, (3-phenylphenyl)methyl N-cyclohexylcarbamate]
381 nM		O=C(NC1CCCCC1)OCc1cn(-c2ccccc2)nn1 [Compound 17, (1-phenyltriazol-4-yl)methyl N-cyclohexylcarbamate]
26 nM and 26.2 nM	Less potent than 1a (URB524) ([1]; r-FAAH, relative to 1a): 4.6 fold; Increase in potency vs compound 17 ([1]; r-FAAH, relative to 17): ca. 15 fold	O=C(NC1CCCCC1)OCc1cn(Cc2ccccc2)nn1 [Compound 18, (1-benzyltriazol-4-yl)methyl N-cyclohexylcarbamate]
833 ± 129 nM		O=C(NC1CCCCC1)OCc1cn(CCc2ccccc2)nn1 [Compound 19, (1-phenethyltriazol-4-yl)methyl N-cyclohexylcarbamate]
	% inhibition of FAAH activity at 100 μM [1]: 73% @ 100 μM	O=C(NC1CCCCC1)OCc1cn(C(c2ccccc2)c2ccccc2)nn1 [Compound 20, (1-benzhydryltriazol-4-yl)methyl N-cyclohexylcarbamate]
2000 ± 636 nM	IC50 [1]: 2000 nM	O=C(NC1CCCCC1)OCc1cn(Cc2ccc3ccccc3c2)nn1 [Compound 21, [1-(2-naphthylmethyl)triazol-4-yl]methyl N-cyclohexylcarbamate]
19.5 ± 4.3 nM		N#Cc1ccccc1Cn1cc(COC(=O)NC2CCCCC2)nn1 [Compound 22a, [1-[(2-cyanophenyl)methyl]triazol-4-yl]methyl N-cyclohexylcarbamate]
21.5 ± 7.9 nM		N#Cc1cccc(Cn2cc(COC(=O)NC3CCCCC3)nn2)c1 [Compound 22b, [1-[(3-cyanophenyl)methyl]triazol-4-yl]methyl N-cyclohexylcarbamate]
2280 ± 585 nM		N#Cc1ccc(Cn2cc(COC(=O)NC3CCCCC3)nn2)cc1 [Compound 22c, [1-[(4-cyanophenyl)methyl]triazol-4-yl]methyl N-cyclohexylcarbamate]
9.9 ± 1.9 nM	Loss of potency on h-FAAH-1 vs r-FAAH [2]: 62 fold	O=C(NC1CCCCC1)OCc1cn(Cc2ccccc2F)nn1 [Compound 23a, [1-[(2-fluorophenyl)methyl]triazol-4-yl]methyl N-cyclohexylcarbamate]
12.1 ± 0.8 nM		O=C(NC1CCCCC1)OCc1cn(Cc2cccc(F)c2)nn1 [Compound 23b, [1-[(3-fluorophenyl)methyl]triazol-4-yl]methyl N-cyclohexylcarbamate]
95.5 ± 22.2 nM		O=C(NC1CCCCC1)OCc1cn(Cc2ccc(F)cc2)nn1 [Compound 23c, [1-[(4-fluorophenyl)methyl]triazol-4-yl]methyl N-cyclohexylcarbamate]
6.2 ± 1.3 nM	Loss of potency on h-FAAH-1 vs r-FAAH [2]: 172 fold	O=C(NC1CCCCC1)OCc1cn(Cc2ccccc2Cl)nn1 [Compound 24a, [1-[(2-chlorophenyl)methyl]triazol-4-yl]methyl N-cyclohexylcarbamate]
13.2 ± 2.8 nM		O=C(NC1CCCCC1)OCc1cn(Cc2cccc(Cl)c2)nn1 [Compound 24b, [1-[(3-chlorophenyl)methyl]triazol-4-yl]methyl N-cyclohexylcarbamate]
215 ± 31 nM		O=C(NC1CCCCC1)OCc1cn(Cc2ccc(Cl)cc2)nn1 [Compound 24c, [1-[(4-chlorophenyl)methyl]triazol-4-yl]methyl N-cyclohexylcarbamate]
21.5 ± 1.2 nM		Cc1ccccc1Cn1cc(COC(=O)NC2CCCCC2)nn1 [Compound 25a, [1-(o-tolylmethyl)triazol-4-yl]methyl N-cyclohexylcarbamate]

IC50 ([1]; mean ± SEM (n=3))	also measured	SMILES
24.5 ± 6.2 nM		Cc1cccc(Cn2cc(COC(=O)NC3CCCCC3)nn2)c1 [Compound 25b, [1-(m-tolylmethyl)triazol-4-yl]methyl N-cyclohexylcarbamate]
500 ± 44 nM		Cc1ccc(Cn2cc(COC(=O)NC3CCCCC3)nn2)cc1 [Compound 25c, [1-(p-tolylmethyl)triazol-4-yl]methyl N-cyclohexylcarbamate]
1.4 ± 0.2 nM	Loss of potency on h-FAAH-1 vs r-FAAH [2]: 240 fold	COc1ccccc1Cn1cc(COC(=O)NC2CCCCC2)nn1 [Compound 26a, [1-[(2-methoxyphenyl)methyl]triazol-4-yl]methyl N-cyclohexylcarbamate]
11.8 ± 3.7 nM		COc1cccc(Cn2cc(COC(=O)NC3CCCCC3)nn2)c1 [Compound 26b, [1-[(3-methoxyphenyl)methyl]triazol-4-yl]methyl N-cyclohexylcarbamate]
627 ± 173 nM		COc1ccc(Cn2cc(COC(=O)NC3CCCCC3)nn2)cc1 [Compound 26c, [1-[(4-methoxyphenyl)methyl]triazol-4-yl]methyl N-cyclohexylcarbamate]
11.9 ± 1 nM		O=C(NC1CCCCC1)OCc1cn(Cc2c(F)cccc2F)nn1 [Compound 28, [1-[(2,6-difluorophenyl)methyl]triazol-4-yl]methyl N-cyclohexylcarbamate]
10.4 ± 2.6 nM		O=C(NC1CCCCC1)OCc1cn(Cc2cc(F)cc(F)c2)nn1 [Compound 29, [1-[(3,5-difluorophenyl)methyl]triazol-4-yl]methyl N-cyclohexylcarbamate]
44.6 ± 10.3 nM		COc1cccc(Cn2cc(COC(=O)NC3CCCCC3)nn2)c1F [Compound 30, [1-[(2-fluoro-3-methoxy-phenyl)methyl]triazol-4-yl]methyl N-cyclohexylcarbamate]
1280 ± 84 nM	Decrease in potency vs compound 17 ([1]; r-FAAH, relative to 17): ca. 3 fold	O=C(NC1CCCCC1)OCCc1cn(-c2ccccc2)nn1 [Compound 32, 2-(1-phenyltriazol-4-yl)ethyl N-cyclohexylcarbamate]
2540 ± 106 nM		O=C(NC1CCCCC1)OCCc1cn(Cc2ccccc2)nn1 [Compound 33, 2-(1-benzyltriazol-4-yl)ethyl N-cyclohexylcarbamate]
154 ± 14 nM		COc1ccccc1Cn1cc(CNC(=O)OCc2cn(Cc3ccccc3OC)nn2)nn1 [Compound 34a, [1-[(2-methoxyphenyl)methyl]triazol-4-yl]methyl N-[[1-[(2-methoxyphenyl)methyl]triazol-4-yl]methyl]carbamate]
3.2 ± 1.2 nM	Increase in potency vs 34a ([1]; r-FAAH): 48 fold; Loss of potency on h-FAAH-1 vs r-FAAH [2]: 4 to 10 fold	COc1cccc(Cn2cc(CNC(=O)OCc3cn(Cc4ccccc4OC)nn3)nn2)c1 [Compound 37, [1-[(2-methoxyphenyl)methyl]triazol-4-yl]methyl N-[[1-[(3-methoxyphenyl)methyl]triazol-4-yl]methyl]carbamate]
7.6 ± 0.6 nM	Loss of potency on h-FAAH-1 vs r-FAAH [2]: 4 to 10 fold	COc1ccc(Cn2cc(CNC(=O)OCc3cn(Cc4ccccc4OC)nn3)nn2)cc1 [Compound 38, [1-[(2-methoxyphenyl)methyl]triazol-4-yl]methyl N-[[1-[(4-methoxyphenyl)methyl]triazol-4-yl]methyl]carbamate]
9.8 ± 0.4 nM	Increase in potency vs 34a ([1]; r-FAAH): ca. 15 fold; Loss of potency on h-FAAH-1 vs r-FAAH [2]: 4 to 10 fold	COc1cccc(Cn2cc(COC(=O)NCc3cn(Cc4ccccc4OC)nn3)nn2)c1 [Compound 39, [1-[(3-methoxyphenyl)methyl]triazol-4-yl]methyl N-[[1-[(2-methoxyphenyl)methyl]triazol-4-yl]methyl]carbamate]
	% inhibition of FAAH activity at 100 μM [1]: 70% @ 100 μM	O=C(NC1CCCCC1)OCc1ncn(-c2ccccc2)n1 [Compound 43]
51500 ± 1120 nM		O=C(NC1CCCCC1)OCc1ncn(Cc2ccccc2)n1 [Compound 46]
